Results published in ChEMBL document CHEMBL1201862, “PubChem BioAssay data set” (2004).
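The compound was tested at five concentrations on cells cultured in 96-well plates, with a 48-hour exposure period. GI50 marks 50% less growth.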 The source made the active and inactive calls. Rule as the data show it: active = GI50 up to about 1.1 µM and inactive = higher.

Legend:
Experiment in all cases: NCI tumour cell line growth inhibition, 48 h
786-0 = system: 786-0
A498 = system: A498
CCRF-CEM = system: CCRF-CEM
COLO 205 = system: COLO 205
HCC 2998 = system: HCC 2998
HOP-62 = system: HOP-62
HT-29 = system: HT-29
IGROV-1 = system: IGROV-1
NCI/ADR-RES = system: NCI/ADR-RES
OVCAR-8 = system: OVCAR-8
SF-539 = system: SF-539
SK-MEL-5 = system: SK-MEL-5
SNB-75 = system: SNB-75
U-251 = system: U-251
UACC-257 = system: UACC-257
UO-31 = system: UO-31
HCT-116 = system: HCT-116
OVCAR-3 = system: OVCAR-3
SK-MEL-28 = system: SK-MEL-28
MDA-N = system: MDA-N

SC1=NNC2(C(S)=N1)c1ccccc1-c1ccccc12
GI50 (786-0): > 10 µM (inactive)
GI50 (A498): 0.697 µM (active)
GI50 (CCRF-CEM): > 10 µM (inactive)
GI50 (COLO 205): > 10 µM (inactive)
GI50 (HCC 2998): > 10 µM (inactive)
GI50 (HOP-62): > 10 µM (inactive)
GI50 (HT-29): > 10 µM (inactive)
GI50 (IGROV-1): > 10 µM (inactive)
GI50 (NCI/ADR-RES): > 10 µM (inactive)
GI50 (OVCAR-8): > 10 µM (inactive)
GI50 (SF-539): > 10 µM (inactive)
GI50 (SK-MEL-5): > 10 µM (inactive)
GI50 (SNB-75): > 10 µM (inactive)
GI50 (U-251): > 10 µM (inactive)
GI50 (UACC-257): > 10 µM (inactive)
GI50 (UO-31): 4.51 µM (inactive)

Cc1ccc(C(=N)c2ccccc2Cc2cccc3ccccc23)c2ccccc12
GI50 (786-0): > 100 µM (inactive)
GI50 (A498): > 100 µM (inactive)
GI50 (CCRF-CEM): 82.6 µM (inactive)
GI50 (COLO 205): 22.1 µM (inactive)
GI50 (HCT-116): 22.1 µM (inactive)
GI50 (HOP-62): > 100 µM (inactive)
GI50 (HT-29): 11.7 µM (inactive)
GI50 (IGROV-1): > 100 µM (inactive)
GI50 (NCI/ADR-RES): > 100 µM (inactive)
GI50 (OVCAR-3): 79.1 µM (inactive)
GI50 (OVCAR-8): > 100 µM (inactive)
GI50 (SF-539): > 100 µM (inactive)
GI50 (SK-MEL-28): > 100 µM (inactive)
GI50 (SK-MEL-5): 31.9 µM (inactive)
GI50 (SNB-75): > 100 µM (inactive)
GI50 (U-251): > 100 µM (inactive)
GI50 (UACC-257): 33.1 µM (inactive)
GI50 (UO-31): 44.8 µM (inactive)

COc1ccc(-c2cc(-c3ccc(Cl)cc3)n(C3OC(CO)C(O)C(O)C3O)c(=S)c2C#N)cc1 (stereo not drawn)
GI50 (786-0): 12.5 µM (inactive)
GI50 (COLO 205): 51.1 µM (inactive)
GI50 (HCC 2998): 64.9 µM (inactive)
GI50 (HCT-116): 34.2 µM (inactive)
GI50 (HOP-62): 57.8 µM (inactive)
GI50 (HT-29): 24.2 µM (inactive)
GI50 (IGROV-1): 26.5 µM (inactive)
GI50 (MDA-N): > 100 µM (inactive)
GI50 (OVCAR-8): 21 µM (inactive)
GI50 (SF-539): > 100 µM (inactive)
GI50 (SK-MEL-28): 72.8 µM (inactive)
GI50 (SK-MEL-5): 16.8 µM (inactive)
GI50 (SNB-75): 89.7 µM (inactive)
GI50 (U-251): 28.1 µM (inactive)
GI50 (UACC-257): 47.8 µM (inactive)
GI50 (UO-31): 16.8 µM (inactive)

CCCCCCCCCCCCCC(=O)OCC1OC(OC)C(NC(=O)N(CCCl)N=O)C(O)C1O (stereo not drawn)
GI50 (786-0): 2.59 µM (inactive)
GI50 (A498): 27.1 µM (inactive)
GI50 (CCRF-CEM): 10.3 µM (inactive)
GI50 (COLO 205): 21.9 µM (inactive)
GI50 (HCC 2998): 28.1 µM (inactive)
GI50 (HCT-116): 14.3 µM (inactive)
GI50 (HOP-62): 17.2 µM (inactive)
GI50 (HT-29): 19.9 µM (inactive)
GI50 (IGROV-1): 29.6 µM (inactive)
GI50 (OVCAR-3): 24.9 µM (inactive)
GI50 (OVCAR-8): 21.8 µM (inactive)
GI50 (SF-539): 3.56 µM (inactive)
GI50 (SK-MEL-28): 25.3 µM (inactive)
GI50 (SK-MEL-5): 16.2 µM (inactive)
GI50 (SNB-75): 8.89 µM (inactive)
GI50 (U-251): 12.6 µM (inactive)
GI50 (UACC-257): 14.2 µM (inactive)
GI50 (UO-31): 22.6 µM (inactive)

Nc1nc[n+](Cc2ccccc2)c2ncn(Cc3ccccc3)c12
GI50 (786-0): > 100 µM (inactive)
GI50 (A498): 55.1 µM (inactive)
GI50 (CCRF-CEM): > 100 µM (inactive)
GI50 (COLO 205): 26.7 µM (inactive)
GI50 (HCC 2998): 15.5 µM (inactive)
GI50 (HCT-116): 37.9 µM (inactive)
GI50 (HOP-62): 32.6 µM (inactive)
GI50 (HT-29): 31.6 µM (inactive)
GI50 (IGROV-1): > 100 µM (inactive)
GI50 (OVCAR-3): 38.6 µM (inactive)
GI50 (OVCAR-8): > 100 µM (inactive)
GI50 (SF-539): > 100 µM (inactive)
GI50 (SK-MEL-28): > 100 µM (inactive)
GI50 (SK-MEL-5): 97.5 µM (inactive)
GI50 (SNB-75): 34.9 µM (inactive)
GI50 (U-251): 45.7 µM (inactive)
GI50 (UACC-257): 63.8 µM (inactive)
GI50 (UO-31): 39.3 µM (inactive)

O=C1/C(=C\c2ccccc2)c2ccccc2N1/N=C\c1ccccc1
GI50 (786-0): 81.5 µM (inactive)
GI50 (A498): > 100 µM (inactive)
GI50 (CCRF-CEM): 49.2 µM (inactive)
GI50 (COLO 205): > 100 µM (inactive)
GI50 (HCC 2998): 50.4 µM (inactive)
GI50 (HCT-116): 77.4 µM (inactive)
GI50 (HOP-62): > 100 µM (inactive)
GI50 (HT-29): 25.1 µM (inactive)
GI50 (IGROV-1): > 100 µM (inactive)
GI50 (OVCAR-3): 91.8 µM (inactive)
GI50 (OVCAR-8): > 100 µM (inactive)
GI50 (SF-539): > 100 µM (inactive)
GI50 (SK-MEL-28): > 100 µM (inactive)
GI50 (SK-MEL-5): 48.4 µM (inactive)
GI50 (SNB-75): 29 µM (inactive)
GI50 (U-251): > 100 µM (inactive)
GI50 (UACC-257): > 100 µM (inactive)
GI50 (UO-31): > 100 µM (inactive)

CCCCCCCCCCCCCC1=C(O)C(=O)C(CC2=C(O)C(=O)C(CCCCCCCCCCCCC)=C(O)C2=O)=C(O)C1=O
GI50 (786-0): > 100 µM (inactive)
GI50 (A498): 90.4 µM (inactive)
GI50 (CCRF-CEM): 98.2 µM (inactive)
GI50 (COLO 205): > 100 µM (inactive)
GI50 (HCT-116): > 100 µM (inactive)
GI50 (HT-29): > 100 µM (inactive)
GI50 (IGROV-1): > 100 µM (inactive)
GI50 (MDA-N): > 100 µM (inactive)
GI50 (OVCAR-3): > 100 µM (inactive)
GI50 (OVCAR-8): > 100 µM (inactive)
GI50 (SF-539): > 100 µM (inactive)
GI50 (SK-MEL-28): > 100 µM (inactive)
GI50 (SK-MEL-5): > 100 µM (inactive)
GI50 (SNB-75): 22.3 µM (inactive)
GI50 (U-251): 68.2 µM (inactive)
GI50 (UACC-257): > 100 µM (inactive)
GI50 (UO-31): > 100 µM (inactive)

Oc1ccc(C(O)(c2ccccc2)c2ccccc2)c2ccccc12
GI50 (786-0): 2.02 µM (inactive)
GI50 (CCRF-CEM): 0.019 µM (active)
GI50 (COLO 205): 3.44 µM (inactive)
GI50 (HCT-116): 2.1 µM (inactive)
GI50 (HOP-62): 2.3 µM (inactive)
GI50 (HT-29): 2.77 µM (inactive)
GI50 (IGROV-1): 1.87 µM (inactive)
GI50 (NCI/ADR-RES): 2.1 µM (inactive)
GI50 (OVCAR-3): 1.42 µM (inactive)
GI50 (OVCAR-8): 2.42 µM (inactive)
GI50 (SF-539): 2 µM (inactive)
GI50 (SK-MEL-28): 15 µM (inactive)
GI50 (SK-MEL-5): 2.67 µM (inactive)
GI50 (SNB-75): 4.53 µM (inactive)
GI50 (U-251): 1.45 µM (inactive)
GI50 (UACC-257): 6.85 µM (inactive)
GI50 (UO-31): 2.97 µM (inactive)
